Legend:
Madsen1 wheat line = assay: selection of tolerant Madsen line (M2 field, M3 greenhouse); type: in vivo, Triticum aestivum
Description: Seeds of the soft white winter wheat variety Madsen, were pre-soaked in tap water. After decanting the tap water, a solution of 0.03% EMS and 0.02% DES was poured into the seed container. The container was shaken every 10-15 minutes during the course of a two-hour treatment. The EMS and DES solution was decanted and a solution of 0.02% sodium azide in 0.001 M phosphate buffer was added. The container again was shaken every 10-15 minutes during the course of a two-hour treatment. Seeds were then rinsed in tap water and dried. After drying, seeds were planted. Planted seeds represented the M1 generation. M1 plants were allowed to self-pollinate and the M2 seed harvested as a bulk. Approximately 0.2 hectares of M2 seed were planted in the field and resultant plants treated with an imazamox rate of 40 g. ai/ha. Twelve M2 plants were identified as tolerant. These plants were dug, and sent to Pullman, Wash. for vernalization and M3 seed production. M3 seed from each of the M2 plants were planted in the greenhouse and resultant plants were vernalized for 8 weeks, then treated with 80 g. ai/ha of Imazamox. Plants were selected based upon observed levels of tolerance and repotted for seed production. The M2:3 line designated Madsen1 selected as tolerant to 40 g/ha imazamox as an M2 was confirmed as tolerant to imazamox at the 80 g/ha rate applied to M3 progeny.

[1] = system: HRS 198205 (AP205CL) wheat plants; assay: field plots and seed increases sprayed with imazamox, HRS 198205 / AP205CL; type: in vivo, Triticum aestivum
Description: (§1) Progeny seed of HRS 198205 and HRS198208 were collected and planted in the field. Field plots were sprayed with imazamox herbicide at 80 g. a.i./ha.+1.0% Sun-It adjuvant (v/v). […] Additionally, seed harvested from plots of five of the HRS198208 sub-lines were combined into a single lot that was designated AP602CL (referred to above as Gunner IMI 208). Seed increases were conducted at several locations. All seed increases were sprayed with imazamox herbicide at 40 g. a.i./ha+0.25% (v/v) non-ionic surfactant.

Madsen1 wheat plants = assay: greenhouse trial of tolerance of Madsen1 to imazamox; type: in vivo, Triticum aestivum; settings: 40 and 80 g/ha, 14 days after treatment, control Teal
Description: Madsen1 was evaluated for tolerance to the imidazolinone herbicide imazamox at 40 and 80 g/ha in a greenhouse trial. The susceptible wheat cultivar Teal was used as a control. Evaluation was made 14 days after treatment. Injury was scored on a 0-9 scale, 0 representing no injury and 9 representing plant death.

[2] = system: AHAS enzyme extracted from herbicide tolerant AP205CL plants; assay: in vitro AHAS enzyme activity, enzyme extracted from AP205CL plants; type: biochemical, Triticum aestivum
Excerpt: (§2) Both the AP205CL and AP602CL wheat plants are tolerant to imidazolinone herbicides due to a mutation of the AHAS enzyme that is resistant to inhibition by these herbicides in vitro. […] The values in FIG. 1 are expressed as a percent of uninhibited activity. […] This activity continues to decline to nearly 100 percent inhibition of the enzyme at higher herbicide concentrations ([…]). In contrast, the AHAS enzyme extracted from herbicide tolerant AP205CL plants retains nearly 90 percent of its activity at the […] imazamox concentration, and approximately one third of its activity at the higher (50 µM to 100 µM) concentrations. The AHAS enzyme extracted from herbicide tolerant AP602CL plants retains nearly 80-100 percent of its activity at the […] imazamox concentration, and nearly half of its activity at the higher ([…]) concentrations. These levels of activity are sufficient to allow the tolerant wheat plants to survive the application of imazamox, as was observed during the selection process (Example 1).
(§3) AHAS is known to be feedback inhibited by the branched chain amino acids. Valine and leucine in combination are especially effective inhibitors.

[3] = system: HRS198208 (AP602CL) wheat plants; assay: field plots and seed increases sprayed with imazamox, HRS198208 / AP602CL; type: in vivo, Triticum aestivum
Description: as §1

[4] = system: AHAS enzyme from wild type Gunner wheat; assay: in vitro AHAS enzyme activity, enzyme extracted from wild type wheat; type: biochemical, Triticum aestivum; set-up: unit of the concentration uncertain
Excerpt: as §2, §3

[5] = system: AHAS enzyme extracted from herbicide tolerant AP602CL plants; assay: in vitro AHAS enzyme activity, enzyme extracted from AP602CL plants; type: biochemical, Triticum aestivum
Excerpt: as §2, §3

[6] = system: AHAS extracted from Madsen1; assay: in vitro AHAS activity, Madsen1 compared to wild type Madsen; type: biochemical, Triticum aestivum
Excerpt: Because the tolerance in Madsen1 is due to a mutation in the AHAS enzyme rendering it resistant to inhibition by imidazolinone herbicides, the in vitro activity of AHAS extracted from wild type plants (not having the mutation for tolerance) can be compared to the in vitro activity of AHAS extracted from tolerant plants in the presence of varying concentrations of an imidazolinone (IMI) herbicide. Madsen1 was compared to the wild type variety Madsen.

For `COCc1cnc(C2=NC(C)(C(C)C)C(=O)N2)c(C(=O)O)c1` (stereo not drawn) [imazamox], the “tolerance of M2 plants” value (Madsen1 wheat line; 40 g/ha imazamox, field, M2) was “tolerant”, the “tolerance of M3 progeny” value (Madsen1 wheat line; 80 g/ha imazamox, greenhouse, M3 progeny) was “tolerant” and the “herbicide susceptible plants in seed increases” value ([1]; 40 g. a.i./ha + 0.25% (v/v) non-ionic surfactant, AP205CL) was “No herbicide susceptible plants were observed”. The “tolerance in field plots” value ([1]; 80 g. a.i./ha + 1.0% Sun-It adjuvant (v/v), HRS 198205) was “same level of acceptable tolerance”, the “tolerance (injury scored on a 0-9 scale)” value (Madsen1 wheat plants) was “has tolerance” and the AHAS activity retained ([2]; 1 M imazamox) was roughly 90%. The “AHAS activity retained (fraction of its activity)” value ([2]; higher (50 M to 100 µM) imazamox concentrations) was “approximately one third”, the “herbicide susceptible plants in seed increases” value ([3]; 40 g. a.i./ha + 0.25% (v/v) non-ionic surfactant, AP602CL) was “No herbicide susceptible plants were observed” and the “tolerance in field plots” value ([3]; 80 g. a.i./ha + 1.0% Sun-It adjuvant (v/v), HRS198208) was “same level of acceptable tolerance”. For the same compound, the “inhibition of the AHAS enzyme” value ([4]; higher herbicide concentrations (100 (unit uncertain))) was roughly 100%, the “reduction of AHAS activity” value ([4]; low concentration (1 (unit uncertain)) of imazamox) was 1 to 35% and the AHAS activity retained ([5]; 1 M imazamox) was 80-100%. For the same compound, the “AHAS activity retained (fraction of its activity)” value ([5]; higher (50 µM to 100 µM) imazamox concentrations) was “half”, the “residual uninhibited AHAS” value ([6]; 100 μM imazamox, Madsen1) was “sufficient to provide a herbicide tolerant response” and the “uninhibited AHAS enzyme activity as imazamox concentration increased” value ([6]; Madsen1 compared to wild type Madsen) was “decreased faster in wild type lines than in Madsen)”.
